Source: patent US20240115729A1, “COMPOSITIONS AND METHODS FOR TARGETED ANTIFIBROTIC THERAPY IN CHRONIC PANCREATITIS” (University of Virginia Patent Foundation, priority 2021, published 2024)

Tests used:
[1] = system: caerulein-induced CP mice; assay: Antifibrotic efficacy of targeted delivery of apigenin in caerulein-induced CP mice (H&E, picrosirius red, fibronectin); format: in vivo, mouse (C57BL/6J); conditions: CP mice pancreas after 3-week treatment; free drug 2 mg/kg oral 6 days per week, liposomes 6 mg/kg i.v. twice per week
Description: Apigenin treatments lasted for 3 weeks for the remaining 3 weeks of caerulein induction. […] Pancreata were perfused, harvested, and paraffin-embedded for immunohistochemistry staining. Livers were perfused, harvested, and partially paraffin-embedded for histology staining. […] Singh et al., 2012). […] The quantification of picrosirius red was determined by Image J, using threshold applied on the red composites of the RGB images. […] Fibronectin expression was quantified using the positive pixel count function on QuPath software (Bankhead et al., 2017). […] Serum alanine aminotransferase (ALT) and blood urea nitrogen (BUN) were determined on […] 8008 Chemistry Analyzer (IDEXX, Westbrook, Maine, United States of America). […] To test the antifibrotic efficacy of targeted liposomes, we evaluated the pharmacodynamics of apigenin in the free drug form, encapsulated in non-targeted liposomes and in ECM liposomes (FIG. 11A). ECM liposomes without drug loading were included in the study as vehicle control. C57BL/6J mice were injected with caerulein 14 days before treatment started to establish inflammation in the pancreas. […] FIGS. 11D and 11G). […] FIGS. 11C and 11F).

[2] = reported on PubChem; cited from earlier work

O=c1cc(-c2ccc(O)cc2)oc2cc(O)cc(O)c12 [Apigenin, 4′,5,7-trihydroxyflavone]
collagen deposition (Picrosirius red-positive area) [1]: 24.90 % area
Charge (ph 7.4) [2]: 0
Log P [2]: 1.7
Water Solubility [2]: 183 mg/mL
pKa1 [2]: 7.12
pKa2 [2]: 8.10
